According to patent US7105527B2, “N4-acylcytosine nucleosides for treatment of viral infections” (priority 2001, dated 2006):
Read-outs that look alike come from different tables or passages of the source.

Columns and labels:
[1] = Cytotoxicity assay in Vero cells; format: cell-based; settings: African green monkey
Method: (§1) The toxicity of the compounds was assessed in Vero, human PBM, CEM (human lymphoblastoid), MT-2, and HepG2 cells, as described previously (Schinazi […]., Cannon D. L., Xie […]., Smith […]. […] Cycloheximide was included as positive cytotoxic control, and untreated cells exposed to solvent were included as negative controls. The cytotoxicity IC50 was obtained from the concentration-response curve using the median effective method described previously (Chou […]. […] Belen'kii M. S. & Schinazi R. F.

[2] = Cytotoxicity assay in CEM cells; format: cell-based, human; settings: human, CEM lymphoblastoid cells
Method: as §1

[3] = Cytotoxicity assay in HepG2 cells; format: cell-based; settings: human
Method: as §1

HIV-1LAl = test: Anti-HIV (in PBM cells) assay, reverse transcriptase readout; format: cell-based
Method: Anti-HIV-1 activity of the compounds was determined in human peripheral blood mononuclear (PBM) cells as described previously (Schinazi […]., Cannon D., Mathis R., Lloyd R. M. Jr., […]., St. Clair M., Wilson J., Furman P. A., Painter G., Choi […]. Antimicrob. Agents Chemother. 1992, 36, 2423; Schinazi […]., Cannon D., Xie […]., Smith G., Hahn E. Antimicrob. Agents Chemother. 1990, 34, 1061). Stock solutions ([…]) of the compounds were prepared in sterile DMSO and then diluted to the desired concentration in growth medium. […] Virus obtained from the cell supernatant was quantified on day 6 after infection by a reverse transcriptase assay using (rA)n.(dT)12.18 as template-primer. […] AZT was included as positive control. The antiviral EC50 and EC90 were obtained from the concentration-response curve using the median effective method described previously (Chou […]. Enzyme Regul. 1984, 22, 27-55; Belen'kii M. S. & Schinazi R. F. Antiviral Res. 1994, 25, 1-11).

[4] = Cytotoxicity assay in PBM cells; format: cell-based, human; settings: human, human PBM cells
Method: as §1

[5] = Cytotoxicity assay in MT-2 cells; format: cell-based; settings: human
Method: as §1

HIV-1RF = test: Anti-HIV (in MT-2 cells) assay, viral RNA accumulation; format: cell-based
Method: In a second antiviral testing system, the potency of the compounds was determined by measurement of viral RNA accumulation in HIV-1RF infected MT-2 cells (Bacheler L T, Paul M, Otto M J, Jadhav P K, Stone B A & Miller J A (1994) An assay for HIV RNIn infected cell lysates, and its use for rapid evaluation of antiviral efficacy. Antivir. Chem. Chemother. 5:111–121). The virus titer was established to determine the dilution producing 15 to 30 ng/RNA per well of HIV RNIn 3 days of infection. HIV-1 RNA was quantified using biotinylated capture and alkaline phosphatase-derivatized reporter oligonucleotides as described previously (Charvet A-S, Camplo M, Faury P, Graciet J C, Mourier N, Chermann J C & Kraus J L (1994) Inhibition of human immunodeficiency virus type 1 replication by phosphonoformate- and phosphonoacetate-2′,3′-dideoxy-3′-thiacytidine conjugates. J. Med. Chem. 37:2216–2223). In a third system, the effect of analogs on the replication of HIV-1NL4-3 was determined via the InterCompany Consortium consensus p24 assay as previously described (Jadhav P K & MacKay M F (1997) Cyclic urea amide: HIV-1 protease inhibitors with low nanomolar potency against both wild types and protease inhibitor resistant mutants of HIV. J. Med. Chem. 40:181–190). Recombinant viruses were recovered by transfecting the appropriate NL4-3 plasmid by lipofection. Virus stocks recovered 7 to 10 days post-transfection were titered on MT-4 cells to determine if the dilution produced 1,000 to 3,000 ng p24 in 4 days. This dilution was then used in drug susceptibility assays, where drug was added 24 h post infection of cells, and p24 quantified by ELISA 3 days later.

Vero cells = test: Cytotoxicity assay in Vero cells; format: cell-based
Method: as §1

[6] = tested on: CEM (human lymphoblastoid) cells; test: Cytotoxicity assay in CEM cells; format: cell-based
Method: as §1

HepG2 cells = test: Cytotoxicity assay in HepG2 cells; format: cell-based
Method: as §1

human PBM cells = test: Cytotoxicity assay in PBM cells; format: cell-based
Method: as §1

[7] = Table 1, read-out: Cytotoxicity in different cells (IC50, μM) Vero
[8] = Table 1, read-out: Cytotoxicity in different cells (IC50, μM) CEM
[9] = Table 1, read-out: Cytotoxicity in different cells (IC50, μM) HepG2
[10] = Human immunodeficiency virus 1, PBMC, Table 1, read-out: Anti-HIV-1 activity in different cells (EC90, μM) PBM
[11] = Table 1, read-out: Cytotoxicity in different cells (IC50, μM) PBM
[12] = Table 1, read-out: Cytotoxicity in different cells (IC50, μM) MT-2
[13] = Human immunodeficiency virus 1, MT2, Table 1, EC90, MT-2 cells, read-out: Anti-HIV-1 activity in different cells (EC90, μM) MT-2
[14] = Table 2, read-out: Cytotoxicity in different cells (IC50, μM) Vero
[15] = Table 2, read-out: Cytotoxicity in different cells (IC50, μM) CEM
[16] = Table 2, read-out: Cytotoxicity in different cells (IC50, μM) HepG2
[17] = Human immunodeficiency virus 1, PBMC, Table 2, read-out: Anti-HIV-1 activity in different cells (EC90, μM) PBM
[18] = Table 2, read-out: Cytotoxicity in different cells (IC50, μM) PBM
[19] = Table 2, read-out: Cytotoxicity in different cells (IC50, μM) MT-2
[20] = Human immunodeficiency virus 1, MT2, Table 2, EC90, MT-2 cells, read-out: Anti-HIV-1 activity in different cells (EC90, μM) MT-2
[21] = Table 1, read-out: Anti-HIV-1 activity in different cells (EC90, μM) PBM

SMILES	IC50 [1, 7] [µM]	IC50 [2, 8] [µM]	IC50 [3, 9] [µM]	EC90 (HIV-1LAl; [10]) [µM]	IC50 [4, 11] [µM]	IC50 [5, 12] [µM]	EC90 (HIV-1RF; [13]) [µM]	IC50 [1, 14] [µM]	IC50 [2, 15] [µM]	IC50 [3, 16] [µM]	EC90 (HIV-1LAl; [17]) [µM]	IC50 [4, 18] [µM]	IC50 [5, 19] [µM]	EC90 (HIV-1RF; [20]) [µM]	further results
O=C(Nc1nc(=O)n([C@H]2CC[C@@H](CO)O2)cc1F)c1cccs1 [Compound 30, β-D-2′,3′-Dideoxy-5-fluoro-N^4-(2-thiophenecarbonyl)cytidine]	23.9	13.7	37.9	0.052	19.4	> 50	0.4								
Cc1ccc(C(=O)Nc2nc(=O)n([C@H]3C=C[C@@H](CO)O3)cc2F)cc1 [Compound 48, β-D-2′,3′-Didehydro-2′,3′-dideoxy-5-fluoro-N^4-p-toluoylcytidine]								> 100	31.9	> 100	0.32	13.2	> 50	0.21	
COc1ccc(C(=O)Nc2nc(=O)n([C@H]3C=C[C@@H](CO)O3)cc2F)cc1 [Compound 42, β-D-N^4-p-Anisoyl-2′,3′-didehydro-2′,3′dideoxy-5-fluorocytidine]										> 100	0.7	> 100	> 50	0.58	
CCCCc1ccc(C(=O)Nc2nc(=O)n([C@H]3CC[C@@H](CO)O3)cc2F)cc1 [Compound 27, β-D-N^4-(4-n-Butylbenzoyl)-2,3′-dideoxy-5-fluorocytidine]															IC50 (Vero cells; [7]): 3.2 µM; IC50 [6, 8]: 1.3 µM; IC50 (HepG2 cells; [9]): 1.9 µM; EC90 (HIV-1LAl; [21]): 0.31 µM; IC50 (human PBM cells; [11]): 1.1 µM
CCCCc1ccc(C(=O)Nc2nc(=O)n([C@H]3C=C[C@@H](CO)O3)cc2F)cc1 [Compound 52, β-D-N^4-(4-n-Butylbenzoyl)-2′,3′-didehydro-2,3′-dideoxy-5-fluoro-^4cytidine]															IC50 (Vero cells; [14]): 29.4 µM; IC50 [6, 15]: 8.5 µM; IC50 (HepG2 cells; [16]): 5.1 µM; EC90 (HIV-1LAl; Table 2, read-out: Anti-HIV-1 activity in different cells (EC90, μM) PBM): 3.1 µM; IC50 (human PBM cells; [18]): 7.3 µM
O=C(Nc1nc(=O)n([C@H]2C=C[C@@H](CO)O2)cc1F)C1CCCC1 [Compound 57, β-D-N^4-(Cyclopentanecarbonyl)-2′,3′-didehydro-2′,3′-dideoxy-5-fluorocytidine]								87.6	19.6	> 100	0.4	52.9	> 50	0.51	
O=C(Nc1nc(=O)n([C@H]2C=C[C@@H](CO)O2)cc1F)C1CCCCC1 [Compound 58, β-D-N-(Cyclohexanecarbonyl)-2′ 3′-didehydro-2′,3′-dideoxy-5-fluorocytidine]								> 100	11.2	> 100	0.6	11.7	> 50	0.38	
O=C(Nc1nc(=O)n([C@H]2C=C[C@@H](CO)O2)cc1F)c1cccc([N+](=O)[O-])c1 [Compound 46, β-D-2′,3′-Didehydro-2,3′-dideoxy-5-fluoro-N^4-(3-nitrobenzoyl)cytidine]								> 100	54.5	> 100	0.93	11.9	> 50	0.58	
CC(C)(C)c1ccc(C(=O)Nc2nc(=O)n([C@H]3CC[C@@H](CO)O3)cc2F)cc1 [Compound 28, β-D-N^4-(4-tert-Butylbenzoyl)-2,3′-dideoxy-5-fluorocytidine]															IC50 (Vero cells; [7]): 25.9 µM; IC50 [6, 8]: 6 µM; IC50 (HepG2 cells; [9]): 21.3 µM; EC90 (HIV-1LAl; [21]): 0.088 µM; IC50 (human PBM cells; [11]): 12.5 µM; EC90 (HIV-1RF; Table 1, EC90, MT-2 cells, read-out: Anti-HIV-1 activity in different cells (EC90, μM) MT-2): 0.6 µM
Cc1cccc(C(=O)Nc2nc(=O)n([C@H]3CC[C@@H](CO)O3)cc2F)c1 [Compound 23, β-D-2′,3′-Dideoxy-5-fluoro-N-m-toluoylcytidine]	61.1	> 100	> 100	0.012	8.4	> 50	0.24								
O=C(Nc1nc(=O)n([C@H]2CC[C@@H](CO)O2)cc1F)c1cc2ccccc2s1 [Compound 32, β-D-2′,3′-Dideoxy-5-fluoro-N^4-(benzo[b]thiophene-2-carbonyl)cytidine]	39.6	4.5	1.3	0.19	23.5	> 50	0.3								
O=C(Nc1nc(=O)n([C@H]2CC[C@@H](CO)O2)cc1F)C1CCCCC1 [Compound 33, β-D-N^4-(Cyclohexanecarbonyl)-2′,3′-dideoxy-5-fluorocytidine]	11.8	6.4	6.5	0.086	4.5	50	0.3								
Cc1cccc(C(=O)Nc2nc(=O)n([C@H]3C=C[C@@H](CO)O3)cc2F)c1 [Compound 49, β-D-2,3′-Didehydro-2,3′-dideoxy-5-fluoro-N^4-m-toluoylcytidine]								149	34.9	> 100	0.7	57.1	> 50		EC90 (HIV-1RF; Human immunodeficiency virus 1, MT2, read-out: Anti-HIV-1 activity in different cells (EC90, μM) MT-2): 0.8 µM
